14 molecules from PubChem BioAssay (NCI) can be followed below.

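A five-concentration, 48-hour dose response in 96-well plates underlies each endpoint, interpolated linearly between surrounding concentrations. TGI: total growth inhibition.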

Holding throughout (assay): inhibition of tumour cell growth, NCI panel, 48 h
Test [1] has as its system SK-MEL-2 melanoma.
The subject of test [2] is SK-MEL-5 melanoma.
Test [3] deals with OVCAR-4 ovarian.
Test [4] relates to SW-620 colon.
Test [5] deals with UACC-257 melanoma.
Test [6] relates to NCI/ADR-RES ovarian.
Test [7] relates to OVCAR-8 ovarian.
The test system of test [8] is NCI-H23 lung.
Test [9] relates to SF-268 CNS.
In test [10] the test system is KM20L2 colon.
For test [11], the system named is DMS 273 small cell lung.
Test [12] has as its system LXFL 529 NSCLC.

`Cc1ccc(-n2cc(-c3ccc(Cl)cc3)c3c(N/N=C4\SCC(=O)N4C)ncnc32)cc1`: the TGI in test [1] was 6.18 µM; in test [2], 15.5 µM; in test [3] it was 8.03 µM; in test [4], > 100 µM; in test [5], 27.1 µM; in test [6], > 100 µM. In addition, the TGI is > 100 µM in test [7], 45.7 µM in test [8] and > 100 µM in [9].

For `COC(=O)C1=C(OC(=O)/C=C/c2ccccc2)C(C(=O)OC)[C@@]2(O)[C@@H](C(=O)OC)[C@H](C)C[C@@H]1[C@@H]2C(=O)OC` (some centres not stated), the TGI was 91.1 µM in [1]; 87.9 µM in [2]; > 100 µM in test [3]; > 100 µM in test [4]; 90.9 µM in [5]; 41.5 µM in test [6]. The TGI in test [7] worked out at 46.2 µM; in test [8] it was 48.8 µM; in test [9], 92 µM.

`COc1cc(O)c2c(=O)c3c(C)cccc3n(C)c2c1`: the TGI in [1], in test [2], in [3], in test [4], in test [5] and in test [6] was > 10 µM in each case. For the same molecule, the TGI in [7], in [8] and in [9] was > 10 µM throughout.

As to `CCOC(=O)C[n+]1cccc(C2(c3cc4ccccc4[nH]3)OCCO2)c1`, the TGI in test [1], in test [2], in test [3], in [4], in [5] and in test [6] was > 100 µM throughout. Further, the TGI in test [7], in test [8] and in test [9] was > 100 µM each time.

Regarding `C(=N\Nc1ccc(-c2nc3ccccc3[nH]2)cc1)/c1c(-c2ccc(Cc3ccccc3)cc2)[nH]c2ccccc12`, the TGI in test [1] is 20 µM; in test [2], > 52.8 µM; in test [3], > 93.6 µM; in [4], > 100 µM; in test [5] it was > 89.1 µM; in test [6], 52.8 µM. Further, the results for the TGI in [7], in test [8] and in test [9] were > 54.7 µM, 59.5 µM and 10 µM, respectively.

For `C=C1C(=O)O[C@H]2[C@H]3O[C@@H](C[C@@H]12)[C@@]1(C)CC[C@H](O1)[C@H](C)CCC[C@H]3C`, the TGI was determined as 4.62 µM in [1]; 2.72 µM in test [2]; 3.4 µM in test [3]; 4.26 µM in [4]; 3.41 µM in test [5]; 2.99 µM in test [6]. For the same molecule, the TGI came to 2.82 µM in [7], 3.18 µM in [8] and 3.34 µM in test [9].

For the molecule `COC(=O)/C(=N/Nc1cccc(Cl)c1)C(C(=O)C(=O)Nc1cccc(Cl)c1C)c1nc2ccccc2nc1C` (configuration not stated), the TGI in [1], in test [2], in [3], in [4], in test [5] and in test [10] was > 100 µM throughout. Besides, the TGI in test [7], in test [8] and in [9] was > 100 µM throughout.

With `CCOC(=O)c1cc(I)c(-c2cc(C)no2)n1C`, the TGI is > 100 µM in test [1]; > 100 µM in test [2]; 75 µM in test [3]; > 100 µM in test [4]; > 100 µM in test [5]; > 100 µM in test [6]. The TGI in test [7], in test [8] and in [9] was > 100 µM each time.

`CC(=O)OCc1cncn1S(=O)(=O)c1ccc(C)cc1`: the TGI in test [1], in test [2], in test [3], in test [4], in test [5] and in test [6] was > 100 µM each time. Besides, the TGI in test [7], in [8] and in test [9] was > 100 µM in each case.

On to `COC(=O)C1C=CCON2CCc3c(n(C)c4ccccc34)C12` (configuration not stated), for which the TGI in test [1], in test [2], in [3], in [4], in test [11] and in test [10] was > 100 µM in each case. For the same molecule, the TGI in [12], in test [8] and in test [9] was > 100 µM in each case.

For the molecule `O=C1Nc2ccccc2Cn2c1cc1oc(-c3ccccc3)cc12`, the TGI in test [1], in test [2], in test [3], in test [4], in [5] and in test [6] was > 100 µM in each case. For the same molecule, the TGI in test [7] is > 100 µM; in [8] it was > 100 µM; in [9], 72.3 µM.

Take `c1ccc(CN[C@]23C4C5CC6C7C5C2C7[C@@](NCc2ccccc2)(C64)N3Cc2ccccc2)cc1` (some centres not stated): the TGI in test [1], in test [2], in test [3], in [4], in test [5] and in [6] was > 100 µM throughout. Moreover, the TGI in test [7], in test [8] and in test [9] was > 100 µM each time.

Take `CC1(C)O[C@@H](CCl)C[C@H](C#N)O1`: the TGI in [1], in [2], in [3], in test [4], in [11] and in test [5] was > 100 µM each time. The TGI in test [10], in [7], in test [8] and in test [9] was > 100 µM in each case.

For `C(=Nc1ccc(-c2nc3ccccc3[nH]2)cc1)c1ccc[nH]1`, the TGI in test [1], in test [2], in test [3], in test [4], in [5] and in [6] was > 100 µM throughout. Also, the TGI in [7], in [8] and in test [9] was > 100 µM throughout.
